Series [1] concerns S. typhimurium strain TM35.
In series [2] the test system is 8AG^R mutant fraction of S. typhimurium cultures.
For series [3], the system named is mixed population of 8AG^S and 8AG^R cells. The series is described as follows: Reconstruction experiment 2: mixed 8AG^R/8AG^S population exposed to the mutation assay protocol. As to conditions: 2 hr.
A further series deals with 8AG^R mutants. Kind of series: Uptake of tagged 8AG by 8AG^R mutant clones. The class given is cell-based, S. typhimurium.
Another series deals with wild-type control. It counts as cell-based, S. typhimurium.
The subject of another series is 8AG^R clones. It counts as cell-based, S. typhimurium. As to conditions: for plating efficiency, 8AG w/cells: 50 ug/ml 8AG plus 10^6 8AG^S cells; for plating efficiency, 8AG: 50 ug/ml 8AG, control 1.00.
The subject of series [4] is 5-methyltryptophan-sensitive bacteria. As to conditions: cited from earlier work.

Where two headings read alike, the source gives them in different places.

As for `COc1ccc2nc3cc(Cl)ccc3c(NCCCNCCCl)c2c1` [ICR-191], the “induced mutant fractions (M.F.)” value in series [1] was “significantly higher than background levels”. In addition, in series [2], the “8AG^R mutant fraction when cultures are allowed to grow before plating” value is “drops significantly and then stabilizes at a constant level”.
Take `O=C1CCO1` [βPL, β-propiolactone]: the “induced mutant fractions (M.F.)” value in series [1] is given as “significantly higher than background levels”. The “ratio of 8AG^R cells to 8AG^S cells in the treated population” value in series [3] (0, 0.16, and 1.60 mM) was “did not suffer significantly”. For the same molecule, in series [3] (high concentration (0, 0.16 and 1.60 mM tested)), the “survival of the mixed population” value is listed as “killed a significant portion of the mixed population”.
In the case of `Nc1nc2nn[nH]c2c(=O)[nH]1` [8AG, 8-azaguanine], the “activity (8AG incorporation), mutants with no detectable activity” value in the series on 8AG^R mutants (9 of the mutants tested) is reported as less than 0.04%. Also, the “8AG Inc. (% wild-type)” value is less than 0.04 % wild-type with 8AG^R mutants (mutant 9AA-1 (induced by 9AA)); less than 0.04 % wild-type with 8AG^R mutants (mutant 9AA-2 (induced by 9AA)); less than 0.04 % wild-type with 8AG^R mutants (mutant 9AA-3 (induced by 9AA)); less than 0.04 % wild-type in the series on 8AG^R mutants (mutant 9AA-4 (induced by 9AA)); less than 0.04 % wild-type with 8AG^R mutants (mutant 9AA-5 (induced by 9AA)); 0.1 % wild-type with 8AG^R mutants (mutant BPL-1 (induced by βPL)). The “8AG Inc. (% wild-type)” value is listed as 2.5 % wild-type in the series on 8AG^R mutants (mutant BPL-2 (induced by βPL)); 7.1 % wild-type in the series on 8AG^R mutants (mutant BPL-3 (induced by βPL)); 1.8 % wild-type in the series with 8AG^R mutants (mutant BPL-4 (induced by βPL)); 1.2 % wild-type in the series on 8AG^R mutants (mutant BPL-5 (induced by βPL)); less than 0.04 % wild-type with 8AG^R mutants (mutant ICR-1 (induced by ICR191)); less than 0.04 % wild-type in the series on 8AG^R mutants (mutant ICR-2 (induced by ICR191)). Besides, the “8AG Inc. (% wild-type)” value in the series on 8AG^R mutants (mutant ICR-3 (induced by ICR191)) is 0.80 % wild-type; in the series with 8AG^R mutants (mutant ICR-4 (induced by ICR191)), less than 0.04 % wild-type; with 8AG^R mutants (mutant ICR-5 (induced by ICR191)), 11.8 % wild-type; in the series with 8AG^R mutants (mutant NG-1 (induced by MNNG)), 0.04 % wild-type; in the series on 8AG^R mutants (mutant NG-2 (induced by MNNG)), 5.1 % wild-type; in the series on 8AG^R mutants (mutant NG-3 (induced by MNNG)), 2.2 % wild-type. Besides, the “8AG Inc. (% wild-type)” value came out at 4.9 % wild-type with 8AG^R mutants (mutant NG-4 (induced by MNNG)); 3.2 % wild-type in the series on 8AG^R mutants (mutant NG-5 (induced by MNNG)); 2.4 % wild-type in the series with 8AG^R mutants (mutant S-1 (spontaneous)); 1.7 % wild-type in the series on 8AG^R mutants (mutant S-2 (spontaneous)); 18.3 % wild-type with 8AG^R mutants (mutant S-3 (spontaneous)); 5.9 % wild-type in the series with 8AG^R mutants (mutant S-4 (spontaneous)). Besides, the “8AG Inc. (% wild-type)” value in the series on 8AG^R mutants (mutant S-5 (spontaneous)) was determined as 19.5 % wild-type. Moreover, in the series on wild-type control, the “8AG incorporation rate of the wild-type control” value is listed as 5×10^-18 moles/cell-hr. In addition, in the series with wild-type control, the “Uptake in the control over time” value is given as “linear through the 2 hr incubation”. Also, in the series on 8AG^R clones, the “effect on plating efficiency, 8AG alone” value is on record as “no effect”. For the same molecule, the “effect on plating efficiency, 8AG with 8AG^S cells” value with 8AG^R clones was “did decrease plating efficiency slightly”. The “plating efficiency, 8AG w/cells” value with 8AG^R clones (clone S-1) is 0.8 ± .07; in the series with 8AG^R clones (clone S-2), 1.04 ± .03; in the series with 8AG^R clones (clone S-3, * statistically less than control (p < .05)), 0.87 ± .08; with 8AG^R clones (clone S-4, * statistically less than control (p < .05)), 0.83 ± .03; in the series with 8AG^R clones (clone S-5, * statistically less than control (p < .05)) it was 0.73 ± .08. The “plating efficiency, 8AG” value with 8AG^R clones (clone S-1) is on record as 0.93 ± .05; in the series with 8AG^R clones (clone S-2), 1.16 ± .03; in the series with 8AG^R clones (clone S-3), 0.95 ± .03; in the series on 8AG^R clones (clone S-4) it was 0.98 ± .01; in the series on 8AG^R clones (clone S-5) it was 0.92 ± .01.
In the case of `Cc1ccc2[nH]cc(C[C@H](N)C(=O)O)c2c1` [5-methyltryptophan], the “growth inhibition of 5-methyltryptophan-sensitive bacteria” value in series [4] is “not completely inhibited”. Also, the “effect of varying the concentration on observed mutant fraction” value in series [4] (varying concentration) is given as “changes the observed mutant fraction”.
With `Nc1c2ccccc2nc2ccccc12` [9AA, 9-aminoacridine], the “induced mutant fractions (M.F.)” value in series [1] is reported as “significantly higher than background levels”.
